According to patent US12110299B2, “Thiazole derivatives and pharmaceutically acceptable salts thereof” (YUNGJIN PHARM. CO., LTD., priority 2018, dated 2024):

Columns and labels:
[1] = target: recombinant purified human CDK7 kinase (Homo sapiens (Human), UniProt P50613); assay: CDK7 kinase-inhibitory activity, ADP-Glo kinase assay; type: biochemical; conditions: ATP 90 µM, MBP substrate, 2 hours at 30° C., read-out: CDK7 inhibition(IC50 nM)
Description: Representative compounds of the present invention were assayed in vitro for CDK7 kinase-inhibitory activities using ADP-Glo platform. In detail, CDK7 kinase-inhibitory activity was measured using recombinant purified human CDK7 kinase (ThermoFisher, PV3868) and ADP Glo kinase assays kit (Promega, V9102). CDK7 kinase was diluted with 1× kinase reaction buffer (40 mM Tris-C1, pH 7.5, 20 mM MgCl2, 0.1 mg/ml BSA and 50 [M DTT) and added to 96 well plates (final concentration of CDK7 per reaction: 50 ng). The compound was finally treated to be a 1% DMSO aqueous solution, and a substrate cocktail containing ATP (final concentration of 90 [M) and 0.2 μg/μl of MBP (Myelin basic protein) in a total of 25 μl of reaction mass was added to 96 well plates, thereby initiating an enzymatic reaction. After 2 hours of incubation (30° C.), equivalent volume (25 μl per reaction) of ADP Glo was added and incubated (30° C.) at room temperature for 60 minutes. The kinase detection reagent (50 μl per reaction) was then added and incubated (30° C.) at room temperature for 30 minutes. The kinase activity was measured by chemiluminescence method according to ADP Glo Kanease Assay Kit instruction manual, and the CDK7-inhibitory activity of the compounds according to the present invention was calculated. The result analysis of each compound was performed using Microsoft Excel, and IC50 values were calculated by Prism software.

MDA-MB-468 cells [2] = assay: Anti-proliferative effect on MDA-MB-468 cells, IC50 (MTT); type: cell-based
Description: The compounds of the present invention were tested at different concentrations (from 1000 nM to 1 nM) to assess their ability for inhibiting the proliferation of MDAMB-468 cells. Cells were cultivated in RPMI 1640 (Welgene)+10% FBS (Gibco)+1% penicillin/streptomycin (Gibco) and cultured at 37° C. in a humidified chamber in the presence of 5% C02.
MDA-MB-468 cells cultured in 96-well cell culture plates were treated with the compounds of the present invention and incubated for 72 hours.

HepG2 cells = assay: HepG2 cell viability assay (CCK-8); type: cell-based, human
Description: The ability to inhibit the proliferation of HepG2 cells, which are human hepatocellular carcinoma cells, was measured through the in vitro cell viability assay. Cells were cultured at 37° C. in a humidified condition in the presence of 5% CO2 using a culture medium of MEM (Welgene)+10% FBS (Gibco)+1% penicillin/streptomycin (Gibco). […] Cell viability was measured by CCK-8 method using tetrazolium salt, and the ability of the compounds according to the present invention to inhibit cancer cell proliferation was calculated.

MDA-MB-468 cells [3] = assay: Anti-proliferative effect on MDA-MB-468 cells, inhibition rate at 100 nM (tetrazolium salt method); type: cell-based; conditions: Homo sapiens, 72 hours
Description: Representative compounds of the present invention were tested at different concentrations (from 1000 nM to 25 nM) to assess their ability to inhibit the proliferation of MDA-MB-468 cells. Cells were grown in RPMI 1640 (Welgene)+10% FBS (Gibco)+1% penicillin/streptomycin (Gibco) and cultured at 37° C. in a humidified chamber in the presence of 5% CO2.
MDA-MB-468 cells cultured in 96-well cell culture plates were treated with representative compounds of the present invention and cultured for 72 hours.

CDK5 = CDK5 (Homo sapiens (Human), UniProt Q00535); assay: scanMAX Kinase Assay Panel, CDK5; type: binding; conditions: read-out: % inhibition at 1 uM CDK5, compound at 1 uM
Description: (§1) The assay (scanMAX Kinase Assay Panel) was performed. […] Kinase Assay Panel contains a set of 468 kinases including CDK2, CDK5. The compounds were screened at 1 [M, and results for binding interactions are reported compared to control (%).

CDK2 = CDK2 (Homo sapiens (Human), UniProt P24941); assay: scanMAX Kinase Assay Panel, CDK2; type: binding; conditions: read-out: % inhibition at 1 uM CDK2, compound at 1 uM
Description: as §1

CDK7 = CDK7 (Homo sapiens (Human), UniProt P50613); assay: scanMAX Kinase Assay Panel, CDK7; type: binding; conditions: read-out: % inhibition at 1 uM CDK7, compound at 1 uM
Description: as §1

Sequence of recombinant purified human CDK7 kinase (P50613 whole entry): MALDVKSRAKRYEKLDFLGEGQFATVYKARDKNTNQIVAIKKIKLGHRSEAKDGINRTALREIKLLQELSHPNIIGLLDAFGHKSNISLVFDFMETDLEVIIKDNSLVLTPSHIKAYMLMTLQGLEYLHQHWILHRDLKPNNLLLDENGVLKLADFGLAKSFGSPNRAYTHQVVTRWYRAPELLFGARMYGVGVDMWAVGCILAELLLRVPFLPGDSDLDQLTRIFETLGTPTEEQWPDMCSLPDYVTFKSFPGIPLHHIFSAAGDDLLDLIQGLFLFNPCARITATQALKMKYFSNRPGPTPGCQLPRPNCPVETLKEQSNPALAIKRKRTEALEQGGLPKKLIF
Sequence of recombinant purified human CDK7 kinase (P51946 whole entry partner): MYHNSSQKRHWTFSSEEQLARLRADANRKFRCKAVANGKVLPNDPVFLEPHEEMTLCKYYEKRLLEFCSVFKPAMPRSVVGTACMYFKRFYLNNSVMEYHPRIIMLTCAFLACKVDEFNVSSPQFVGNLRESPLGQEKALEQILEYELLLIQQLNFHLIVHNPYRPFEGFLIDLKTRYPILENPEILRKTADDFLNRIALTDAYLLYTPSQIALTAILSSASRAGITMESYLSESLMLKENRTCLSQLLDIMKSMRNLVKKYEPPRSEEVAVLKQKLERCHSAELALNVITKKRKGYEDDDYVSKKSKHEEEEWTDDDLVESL
Sequence of recombinant purified human CDK7 kinase (P51948 whole entry partner): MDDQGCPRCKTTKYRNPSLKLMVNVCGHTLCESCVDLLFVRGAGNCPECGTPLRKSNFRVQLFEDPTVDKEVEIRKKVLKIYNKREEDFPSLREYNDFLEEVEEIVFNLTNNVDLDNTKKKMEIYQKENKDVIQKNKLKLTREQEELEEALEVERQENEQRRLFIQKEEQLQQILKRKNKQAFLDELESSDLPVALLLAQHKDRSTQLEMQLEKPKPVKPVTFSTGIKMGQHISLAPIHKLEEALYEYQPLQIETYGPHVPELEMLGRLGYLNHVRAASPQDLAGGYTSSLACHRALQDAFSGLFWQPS
Sequence of CDK5 (Q00535 whole entry): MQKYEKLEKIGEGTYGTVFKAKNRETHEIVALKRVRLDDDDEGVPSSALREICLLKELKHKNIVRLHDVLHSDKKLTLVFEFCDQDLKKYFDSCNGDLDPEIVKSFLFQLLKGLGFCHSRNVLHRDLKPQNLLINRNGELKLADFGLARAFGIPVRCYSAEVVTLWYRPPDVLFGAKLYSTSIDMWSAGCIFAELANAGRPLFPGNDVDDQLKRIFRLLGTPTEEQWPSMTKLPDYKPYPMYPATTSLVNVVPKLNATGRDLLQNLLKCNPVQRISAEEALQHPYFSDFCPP
Sequence of CDK7 (P50613 whole entry): as the sequence (P50613 whole entry) above

Structure (SMILES)	IC50 [1] [nM]	IC50 (MDA-MB-468 cells [2]; Homo sapiens, MDA-MB-468, 72 h) [nM]	IC50 (HepG2 cells; Homo sapiens, HepG2, 72 h) [nM]	also measured
CC(C(=O)Nc1ncc(C(F)(F)F)s1)c1cncc(-c2cnc(NC(=O)/C=C/CN(C)C)cn2)c1 (centres unmarked) [Example 63, (E)-4-(dimethylamino)-N-(5-(5-(1-oxo-1-((5-(trifluoromethyl)thiazol-2-yl)amino)propan-2-yl)pyridin-3-yl)pyrazin-2-yl)but-2-enamide]	17	20	2	
C=CC(=O)Nc1cnc(-c2cncc(C(C)C(=O)Nc3ncc(C(F)(F)F)s3)c2)cn1 (centres unmarked) [Example 45, N-(5-(5-(1-oxo-1-((5-(trifluoromethyl)thiazol-2-yl)amino)propan-2-yl)pyridin-3-yl)pyrazin-2-yl)acrylamide]	22	10	8	inhibition at 0.1 µM (MDA-MB-468 cells [3]): 59%
C[C@H](C(=O)Nc1ncc(C(F)(F)F)s1)c1cccc(-c2cnc(NC(=O)/C=C/CN3CC[C@H](F)C3)cn2)c1 [Example 117, (E)-4-((S)-3-fluoropyrrolidin-1-yl)-N-(5-(3-((S)-1-oxo-1-((5-(trifluoromethyl)thiazol-2-yl)amino)propan-2-yl)phenyl)pyrazin-2-yl)but-2-enamide]	15	56		
C=CC(=O)Nc1cnc(-c2cncc([C@H](C)C(=O)Nc3ncc(C(F)(F)F)s3)c2)cn1 [Example 52, (S)-N-(5-(5-(1-oxo-1-((5-(trifluoromethyl)thiazol-2-yl)amino)propan-2-yl)pyridin-3-yl)pyrazin-2-yl)acrylamide]	19			inhibition at 0.1 µM (MDA-MB-468 cells [3]): 72%
C[C@H](C(=O)Nc1ncc(C(F)(F)F)s1)c1cccc(-c2cnc(NC(=O)/C=C/CN3CCC(O)C3)cn2)c1 (stereo partly drawn) [Example 119, (E)-4-(3-hydroxypyrrolidin-1-yl)-N-(5-(3-((S)-1-oxo-1-((5-(trifluoromethyl)thiazol-2-yl)amino)propan-2-yl)phenyl)pyrazin-2-yl)but-2-enamide]	9	44		
C=CC(=O)Nc1cnc(-c2cccc([C@H](C)C(=O)Nc3ncc(C(F)(F)F)s3)c2)cn1 [Example 37, (S)-N-(5-(3-(1-oxo-1-((5-(trifluoromethyl)thiazol-2-yl)amino)propan-2-yl)phenyl)pyrazin-2-yl)acrylamide]	17	40	8	inhibition at 0.1 µM (MDA-MB-468 cells [3]): 60%
C[C@H](C(=O)Nc1ncc(C(F)(F)F)s1)c1cccc(-c2cnc(NC(=O)/C=C/CN3CCN(C)CC3)cn2)c1 [Example 95, (S,E)-4-(4-methylpiperazin-1-yl)-N-(5-(3-(1-oxo-1-((5-(trifluoromethyl)thiazol-2-yl)amino)propan-2-yl)phenyl)pyrazin-2-yl)but-2-enamide]	80	57		

Continued, in another order:

IC50 [1] [nM]	IC50 (MDA-MB-468 cells [2]; Homo sapiens, MDA-MB-468, 72 h) [nM]	IC50 (HepG2 cells; Homo sapiens, HepG2, 72 h) [nM]	Structure (SMILES)	also measured
43	35		CC(C(=O)Nc1ncc(Cl)s1)c1cncc(-c2cnc(NC(=O)/C=C/CN(C)C)cn2)c1 (centres unmarked) [Example 73, (E)-N-(5-(5-(1-((5-chlorothiazol-2-yl)amino)-1-oxopropan-2-yl)pyridin-3-yl)pyrazin-2-yl)-4-(dimethylamino)but-2-enamide]	
13	33		CCc1cnc(NC(=O)[C@@H](C)c2cccc(-c3cnc(NC(=O)/C=C/CN(C)C)c(C)c3)c2)s1 [Example 125]	
7	30	5	C[C@H](C(=O)Nc1ncc(C(F)(F)F)s1)c1cccc(-c2cnc(NC(=O)/C=C/CN(C)C)c(C#N)c2)c1 [Example 101, (S,E)-N-(3-cyano-5-(3-(1-oxo-1-((5-(trifluoromethyl)thiazol-2-yl)amino)propan-2-yl)phenyl)pyridin-2-yl)-4-(dimethylamino)but-2-enamide]	inhibition at 1 µM (CDK5): 22%; inhibition at 1 µM (CDK2): 26%; inhibition at 1 µM (CDK7): 99%
71			C[C@H](C(=O)Nc1ncc(N(C)C)s1)c1cccc(-c2cnc(NC(=O)/C=C/CN(C)C)cn2)c1 [Example 106, (S,E)-4-(dimethylamino)-N-(5-(3-(1-((5-(dimethylamino)thiazol-2-yl)amino)-1-oxopropan-2-yl)phenyl)pyrazin-2-yl)but-2-enamide]	
13	65		C[C@H](C(=O)Nc1ncc(C(F)(F)F)s1)c1cccc(-c2ccc(NC(=O)/C=C/CN(C)C)nc2)c1 [Example 116, (S,E)-4-(dimethylamino)-N-(5-(3-(1-oxo-1-((5-(trifluoromethyl)thiazol-2-yl)amino)propan-2-yl)phenyl)pyridin-2-yl)but-2-enamide]	
7	23	3	CCc1cnc(NC(=O)[C@@H](C)c2cccc(-c3cnc(NC(=O)/C=C/CN(C)C)c(C#N)c3)c2)s1 [Example 121, (S,E)-N-(3-cyano-5-(3-(1-((5-ethylthiazol-2-yl)amino)-1-oxopropan-2-yl)phenyl)pyridin-2-yl)-4-(dimethylamino)but-2-enamide]	inhibition at 1 µM (CDK5): 30%; inhibition at 1 µM (CDK2): 20%; inhibition at 1 µM (CDK7): 99%
8			C[C@H](C(=O)Nc1ncc(C(F)(F)F)s1)c1cccc(-c2cnc(NC(=O)/C=C/CN(C)C)cn2)c1 [Example 91, (S,E)-4-(dimethylamino)-N-(5-(3-(1-oxo-1-((5-(trifluoromethyl)thiazol-2-yl)amino)propan-2-yl)phenyl)pyrazin-2-yl)but-2-enamide]	IC50 (MDA-MB-468 cells [2]; 72 hours): 38 nM; IC50 (HepG2 cells; 72 hours): 9.5 nM
8	18	3.8	CCc1cnc(NC(=O)[C@@H](C)c2cccc(-c3cnc(NC(=O)/C=C/CN(C)C)c(F)c3)c2)s1 [Example 130, (S,E)-4-(dimethylamino)-N-(5-(3-(1-((5-ethylthiazol-2-yl)amino)-1-oxopropan-2-yl)phenyl)-3-fluoropyridin-2-yl)but-2-enamide]	
